Reference: ChEMBL document CHEMBL3832023, “DailyMed|setid=c8b93fc1-472c-4890-8d02-2ee4f7175c22 | BUTALBITAL, ASPIRIN, CAFFEINE AND CODEINE PHOSPHATE- butalbital, aspirin,caffeine and codeine phosphate capsule|Jerome Stevens Pharmaceuticals”

Assays:
Homo sapiens = assay: (§1) Pharmacokinetic parameters for aspirin and salicylic acid following oral administration of Aspirin,butalbital,caffeine phosphate capsules.; format: ADME, organism-based; design: dose 650 mg, route oral; settings: in vivo, po, dose 650 mg, dosed compound id 37, dosed compound name ASPIRIN, tissue Plasma
[1] = as §1; format: ADME, organism-based; design: dose 650 mg, route oral; settings: human, in vivo, dosed compound id 37, dosed compound name ASPIRIN, tissue Plasma; for half-life: dose 650 mg, route oral

Structure (SMILES) | Tmax (Homo sapiens) | Cmax ([1]; po, 650 mg) | half-life [1]
CC(=O)Oc1ccccc1C(=O)O [ASPIRIN] | 40 min | 8800 ng/mL | 12 min
O=C(O)c1ccccc1O [SALICYLIC ACID] | – | – | 180 min
